B1: N-Cad/CTF2: chicken cytoplasmic domain of N-cadherin (N-Cad/CTF2) inserted into vector pECE, expressed in L cells (protein)
chain: KRRDKERQAKQLLIDPEDDVRDNILKYDEEGGGEEDQDYDLSQLQQPDTVEPDAIKPVGIRRLDERPIHAEPQYPVRSAAPHPGDIGDFINEGLKAADNDPTAPPYDSLLVFDYEGSGSTAGSLSSLNSSSSGGEQDYDYLNDWGPRFKKLADMYGGGDD

Experiments:
N-cadherin = assay: In vitro ε-cleavage assay, membranes from mouse fibroblasts or N2a cell cultures; format: biochemical; design: dose or concentration left out as unconfirmed; details: cultures incubated 16 hours with L-685,458; membranes 37° C. 2 hours
Description: In vitro γ-secretase-like ε-cleavage assay. Cells were washed in PBS, resuspended in 1 ml of 4° C. hypotonic buffer (10 mM MOPS, pH 7.0, 10 mM KCl) and homogenized on ice. A post-nuclear supernatant was prepared by centrifugation at 1000×g for 15 minutes at 4° C. Crude membranes were isolated from the post-nuclear supernatant by centrifugation at 16,000×g for 40 minutes at 4° C. The membranes were then resuspended in […] of assay buffer (150 mM sodium citrate, pH 6.4, 1× Complete protease inhibitor cocktail), and incubated at 37° C. for 2 hours. Samples were either analyzed directly by WB or separated into pellet (P100) and supernatant (S100) fractions by ultracentrifugation for 1 hour at 100,000×g at 4° C. The S100 and P100 fractions were then analyzed by WB.
To detect the product of the PS1-dependent cleavage of N-cadherin, an in vitro assay that uses incubation of membrane fractions to detect the ICD product of the E-cleavage of APP was used. (Gu et al. (2001) J. Biol. Chem. 276:35235-35238; McLendon et al. (2000) FASEB J. 14:2383-2386). […]

E-cadherin = E-cadherin processing in E-cadherin-transfected PS1+/+ fibroblasts (Western blot, C36); format: cell-based, mouse; details: L-685,458 0.5 μM, 6 hours, compared to non-treated controls
Description: Cell Cultures and transfections. Cells were grown in Dulbecco's Modified Eagle Medium (DMEM) plus 10% fetal bovine serum, penicillin and streptomycin in 5% CO2 at 37° C. Fibroblast cell lines derived either from wild-type (WT) (PS1+/+) or PS1 knock-out (PS1−/−) mice were stably transfected with human E-cadherin as described by Baki et al., (2001). A431 cells were from American Type Culture Collection. Stable transfectants of PS1 cDNA in HEK293 cells were prepared as described by Georgakopoulos et al., (1999). A431D cells stably transfected with wild-type or GGG759-761AAA mutant E-cadherin were provided by Dr. A. B. Reynolds.
Immunoprecipitations (IPs), immunoblotting, immunofluorescence and confocal microscopy. For WB analysis of cell extracts, cells were washed with PBS and then solubilized in RIPA buffer. For IPs cells were solubilized in Hepes buffer (25 mM Hepes [pH 7.4], 150 mM NaCl, 1× Complete protease inhibitor cocktail, Roche) containing 1% digitonin (IPs with I-R222 and PI-R222 antibodies) or 1% Triton X-100 (IPs with β-catenin and desmoglein antibodies). Following centrifugation at 17,000×g for 10 min, supernatants (1 mg protein) were pre-cleared with protein A- or protein G-agarose (Pierce) for 2 hours. […] IPs were washed with Hepes buffer containing either 1% digitonin or 1% Triton X-100 and analyzed by SDS-PAGE. […]

CBP/CREB complex = biological target: T1, CBP/CREB complex (Mus musculus, UniProt P45481); assay: Electrophoretic mobility shift assay, CREB probe; format: biochemical; details: nuclear extract from cells transfected with 0.2 μg and 0.5 μg pN-Cad/CTF2, FIG. 11C lanes 6-8
T1 construct: full length mouse CBP inserted into vector pRc/RSV; expressed in transfected cells; host or cells: L cells transfected with mouse CBP (pRc/RSV), without or with 0.2 or 0.5 µg pN-Cad/CTF2; nuclear extract
Description: Electrophoresis mobility shift assay (EMSA). Nuclear extract from CBP-transfected L cells were prepared using the extraction kit N-XTRACT (Sigma) according to manufacturer's instructions. Ten microgram of nuclear extract was used for EMSA performed according to manufacturer's instructions using biotinylated double-stranded oligonucleotide probes containing DNA-binding motifs for CREB or MEF-1 (Panomics). Probes are as follow: CREB, 5′-[…]-3′ (SEQ ID NO: 17); MEF-1,5′-[…]-3′ (SEQ ID NO: 18). Reaction products were separated on 6% polyacrylamide gels in cold TBE buffer (50 mM Tris-HCl, 45 mM Boric acid, 0.5 mM EDTA), transferred to nylon membranes (Immobilon-Ny+, Millipore) and bound probes were immobilized for 30 minutes at 85° C. and visualized by chemiluminescence using streptavidin-HRP conjugate. For antibody supershift analysis, nuclear extract was incubated for 3 hours at 4° C. with […] of 1 B6 antibody prior to probe addition. Where indicated, nuclear extract ([…]) was immunoprecipitated with A-22 antibody ([…]) and protein A-agarose in EBC buffer (50 mM Tris, pH 8, 120 mM NaCl, 0.5% NP40, 1× Complete protease inhibitor cocktail).

T1 sequence (P45481 whole entry, one chain of several): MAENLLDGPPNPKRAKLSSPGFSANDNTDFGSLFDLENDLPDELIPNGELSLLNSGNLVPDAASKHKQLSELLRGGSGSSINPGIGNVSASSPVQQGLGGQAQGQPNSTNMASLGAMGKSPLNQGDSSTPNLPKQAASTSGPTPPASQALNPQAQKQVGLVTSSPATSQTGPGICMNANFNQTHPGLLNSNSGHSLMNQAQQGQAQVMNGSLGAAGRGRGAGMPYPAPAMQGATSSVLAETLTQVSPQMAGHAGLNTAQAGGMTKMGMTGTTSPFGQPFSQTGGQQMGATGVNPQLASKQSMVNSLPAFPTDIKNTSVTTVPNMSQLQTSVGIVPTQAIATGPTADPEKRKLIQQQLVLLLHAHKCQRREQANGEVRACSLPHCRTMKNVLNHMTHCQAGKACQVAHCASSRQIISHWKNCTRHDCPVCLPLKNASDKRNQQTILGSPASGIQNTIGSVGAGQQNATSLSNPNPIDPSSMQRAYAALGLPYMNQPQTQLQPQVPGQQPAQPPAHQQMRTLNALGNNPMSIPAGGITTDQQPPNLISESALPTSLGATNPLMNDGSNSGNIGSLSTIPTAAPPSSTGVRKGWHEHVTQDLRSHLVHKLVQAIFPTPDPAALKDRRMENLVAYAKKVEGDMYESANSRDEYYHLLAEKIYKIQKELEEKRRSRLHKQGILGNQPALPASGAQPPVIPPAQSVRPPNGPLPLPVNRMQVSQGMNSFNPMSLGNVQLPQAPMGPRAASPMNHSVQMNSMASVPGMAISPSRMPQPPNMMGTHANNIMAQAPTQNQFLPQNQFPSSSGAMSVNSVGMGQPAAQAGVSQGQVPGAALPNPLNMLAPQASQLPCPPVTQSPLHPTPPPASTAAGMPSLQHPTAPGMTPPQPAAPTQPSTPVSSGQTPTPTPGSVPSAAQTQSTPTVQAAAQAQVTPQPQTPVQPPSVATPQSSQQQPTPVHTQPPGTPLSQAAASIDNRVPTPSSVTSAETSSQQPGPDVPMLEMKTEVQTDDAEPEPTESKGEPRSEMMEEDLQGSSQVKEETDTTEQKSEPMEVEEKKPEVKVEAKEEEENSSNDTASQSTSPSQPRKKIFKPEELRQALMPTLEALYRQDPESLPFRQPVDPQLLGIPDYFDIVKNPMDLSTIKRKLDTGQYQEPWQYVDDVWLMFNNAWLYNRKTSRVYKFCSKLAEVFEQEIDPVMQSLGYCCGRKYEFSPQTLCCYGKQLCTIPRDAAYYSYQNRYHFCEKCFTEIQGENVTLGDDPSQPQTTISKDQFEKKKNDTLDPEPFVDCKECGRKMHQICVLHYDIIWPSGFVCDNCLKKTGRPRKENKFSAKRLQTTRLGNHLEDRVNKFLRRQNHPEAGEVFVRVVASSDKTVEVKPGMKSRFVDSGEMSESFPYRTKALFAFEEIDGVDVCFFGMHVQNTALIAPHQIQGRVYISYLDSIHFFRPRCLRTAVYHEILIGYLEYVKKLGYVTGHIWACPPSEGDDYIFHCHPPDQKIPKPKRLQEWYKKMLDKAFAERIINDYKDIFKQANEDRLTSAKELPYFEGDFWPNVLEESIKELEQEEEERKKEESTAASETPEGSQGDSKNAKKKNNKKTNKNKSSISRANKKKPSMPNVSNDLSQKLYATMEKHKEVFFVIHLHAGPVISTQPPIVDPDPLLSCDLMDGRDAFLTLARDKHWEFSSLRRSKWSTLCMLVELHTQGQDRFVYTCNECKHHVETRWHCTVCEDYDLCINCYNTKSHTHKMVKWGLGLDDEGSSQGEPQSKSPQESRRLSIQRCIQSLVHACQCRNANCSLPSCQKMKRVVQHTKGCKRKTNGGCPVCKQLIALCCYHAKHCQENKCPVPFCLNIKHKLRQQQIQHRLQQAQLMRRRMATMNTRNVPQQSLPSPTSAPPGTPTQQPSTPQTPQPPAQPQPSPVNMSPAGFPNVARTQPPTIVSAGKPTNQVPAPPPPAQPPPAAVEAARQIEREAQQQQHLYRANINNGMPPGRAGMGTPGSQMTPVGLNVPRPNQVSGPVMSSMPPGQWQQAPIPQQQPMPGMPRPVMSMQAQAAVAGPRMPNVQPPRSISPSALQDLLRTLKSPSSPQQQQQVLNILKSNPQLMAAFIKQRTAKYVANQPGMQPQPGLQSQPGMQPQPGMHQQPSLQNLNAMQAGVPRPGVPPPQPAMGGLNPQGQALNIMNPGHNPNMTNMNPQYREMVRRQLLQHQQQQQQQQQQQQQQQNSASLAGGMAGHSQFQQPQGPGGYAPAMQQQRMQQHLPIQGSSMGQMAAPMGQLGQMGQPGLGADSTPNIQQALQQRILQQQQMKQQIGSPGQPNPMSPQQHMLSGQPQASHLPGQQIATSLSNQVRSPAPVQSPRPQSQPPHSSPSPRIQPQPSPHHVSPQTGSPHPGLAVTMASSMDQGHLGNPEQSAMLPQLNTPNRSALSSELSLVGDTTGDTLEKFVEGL

Molecule	soluble 35 kDa peptide N-Cad/CTF2 (N-cadherin)	cellular E-Cad/CTF1 (E-cadherin)	formation of a CBP/CREB complex on CRE-containing DNA templates (CBP/CREB complex)
CC(C)C[C@H](NC(=O)[C@H](Cc1ccccc1)C[C@@H](O)[C@H](Cc1ccccc1)NC(=O)OC(C)(C)C)C(=O)N[C@@H](Cc1ccccc1)C(N)=O [L-685,458]	completely absent	increased cellular E-Cad/CTF1	–
B1	–	–	defective in their ability to promote formation of a CBP/CREB complex
